From ChEMBL document CHEMBL1909046, “DrugMatrix in vitro pharmacology data” come the findings set out here.

The nature of test [1]: DRUGMATRIX: GABAA, Chloride Channel, TBOB radioligand binding (ligand: [3H] TBOB). The format is cell membranes, Rattus norvegicus, Wistar, Cerebral cortex, Membrane. The settings on record: Not Active = under 50% inhibition at 10 µM.
Test [2] has as its target T1, Adenosine receptor A3 (Homo sapiens, UniProt P0DMS8).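 Note: radioligand binding assay with AB-MECA serving as the labeled ligand; in other assays of this panel Not Active means under 50% inhibition at 10 µM.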
T1 sequence (P0DMS8 whole entry): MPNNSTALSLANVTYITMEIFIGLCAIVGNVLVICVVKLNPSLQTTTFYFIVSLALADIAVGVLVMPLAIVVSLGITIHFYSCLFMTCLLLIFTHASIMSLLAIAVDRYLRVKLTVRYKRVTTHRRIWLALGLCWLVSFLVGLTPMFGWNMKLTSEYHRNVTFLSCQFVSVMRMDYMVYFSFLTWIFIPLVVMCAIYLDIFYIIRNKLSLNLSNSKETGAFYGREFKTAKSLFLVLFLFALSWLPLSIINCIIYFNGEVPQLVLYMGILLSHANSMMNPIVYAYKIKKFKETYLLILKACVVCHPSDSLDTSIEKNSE
The format is cell membranes, CHO-K1, Membrane.

Test [3] addresses T2, Vasoactive intestinal polypeptide receptor 1 (Homo sapiens, UniProt P32241).
T2 sequence (P32241 whole entry): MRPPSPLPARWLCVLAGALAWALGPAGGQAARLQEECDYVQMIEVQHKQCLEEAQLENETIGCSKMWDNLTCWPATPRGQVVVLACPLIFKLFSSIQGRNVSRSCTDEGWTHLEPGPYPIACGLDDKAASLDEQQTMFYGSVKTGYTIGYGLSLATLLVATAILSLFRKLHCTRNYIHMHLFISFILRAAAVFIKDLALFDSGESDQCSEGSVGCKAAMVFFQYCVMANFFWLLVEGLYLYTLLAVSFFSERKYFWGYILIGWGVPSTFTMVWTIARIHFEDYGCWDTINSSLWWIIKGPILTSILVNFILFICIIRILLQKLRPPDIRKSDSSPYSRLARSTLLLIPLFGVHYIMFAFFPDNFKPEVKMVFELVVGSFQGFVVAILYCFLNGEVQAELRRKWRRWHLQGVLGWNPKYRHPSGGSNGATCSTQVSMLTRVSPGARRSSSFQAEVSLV
The format is cell membranes, Membrane. The settings on record: ht-29.

Test [4] has as its target Kappa-type opioid receptor (Homo sapiens, UniProt P41145). The test can be described thus: DRUGMATRIX: Opiate kappa (OP2, KOP) radioligand binding (ligand: [3H] Diprenorphine). The settings on record: Not Active = under 50% inhibition at 10 µM. Format: cell membranes, HEK293, Membrane.
Test [5] is described as follows: DRUGMATRIX: beta-Lactamase enzyme inhibition (substrate: Nitrocefin). Also noted: species or system Bacillus cereus. To be noted: Not Active = under 50% inhibition at 10 µM.
Test [6] concerns the target Vasopressin V1a receptor (Homo sapiens, UniProt P37288). The format is cell membranes, Membrane. The settings on record: hek293. Note: in other assays of this panel Not Active means under 50% inhibition at 10 µM.
The target of test [7] is Mitogen-activated protein kinase 1 (Homo sapiens, UniProt P28482). The test can be described thus: DRUGMATRIX: Protein Serine/Threonine Kinase, ERK2 enzyme inhibition (substrate: Myelin Basic Protein). Also noted: species or system Escherichia coli. To be noted: Not Active = under 50% inhibition at 10 µM.
Sequence of Mitogen-activated protein kinase 1 (P28482 whole entry): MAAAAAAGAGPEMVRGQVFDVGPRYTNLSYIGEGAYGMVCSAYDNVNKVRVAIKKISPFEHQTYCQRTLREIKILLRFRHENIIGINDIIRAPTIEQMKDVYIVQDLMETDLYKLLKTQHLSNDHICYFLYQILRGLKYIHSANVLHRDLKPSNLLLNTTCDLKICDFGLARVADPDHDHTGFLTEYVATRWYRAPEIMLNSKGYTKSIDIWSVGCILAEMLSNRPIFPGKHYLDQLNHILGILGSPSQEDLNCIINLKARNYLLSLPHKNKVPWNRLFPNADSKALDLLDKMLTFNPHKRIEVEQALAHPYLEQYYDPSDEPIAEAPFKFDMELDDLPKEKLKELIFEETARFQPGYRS

The structures appear in SMILES notation.

Sequence of Kappa-type opioid receptor (P41145 whole entry): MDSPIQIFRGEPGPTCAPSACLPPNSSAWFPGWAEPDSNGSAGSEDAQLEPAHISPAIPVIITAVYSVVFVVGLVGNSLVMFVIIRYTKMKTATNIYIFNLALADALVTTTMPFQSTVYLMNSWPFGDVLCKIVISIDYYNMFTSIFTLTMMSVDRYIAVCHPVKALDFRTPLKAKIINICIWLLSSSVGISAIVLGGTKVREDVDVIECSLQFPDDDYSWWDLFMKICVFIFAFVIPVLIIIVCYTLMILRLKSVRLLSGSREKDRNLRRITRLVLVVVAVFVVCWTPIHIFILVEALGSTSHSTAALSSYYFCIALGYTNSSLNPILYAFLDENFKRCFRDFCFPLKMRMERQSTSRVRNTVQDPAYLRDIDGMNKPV
Sequence of Vasopressin V1a receptor (P37288 whole entry): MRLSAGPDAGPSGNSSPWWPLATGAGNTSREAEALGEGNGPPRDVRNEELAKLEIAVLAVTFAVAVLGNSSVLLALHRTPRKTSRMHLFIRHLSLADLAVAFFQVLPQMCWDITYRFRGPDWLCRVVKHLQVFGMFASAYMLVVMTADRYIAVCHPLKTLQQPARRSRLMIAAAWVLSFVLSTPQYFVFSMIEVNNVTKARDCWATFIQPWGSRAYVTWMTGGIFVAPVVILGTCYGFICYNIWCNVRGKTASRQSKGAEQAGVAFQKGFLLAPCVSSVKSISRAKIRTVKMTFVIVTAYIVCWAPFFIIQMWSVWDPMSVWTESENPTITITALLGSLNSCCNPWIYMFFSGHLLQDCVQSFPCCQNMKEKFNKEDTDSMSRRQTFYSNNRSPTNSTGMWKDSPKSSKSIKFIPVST

With `CC(C(=O)O)c1ccc2oc(-c3ccc(Cl)cc3)nc2c1` (stereo not drawn) [BENOXAPROFEN], the half-maximal inhibitory concentration (IC50) entry in test [1], in test [2] (cho-k1), in test [3], in test [4] (hek293), in test [5] and in test [6] was “Not Active” in each case. For the same molecule, in test [7], the IC50 result was “Not Active”. Moreover, the Ki entry in test [1] and in test [5] was “Not Active” throughout.

For `Oc1c(Cl)cc(Cl)c(Cl)c1Cc1c(O)c(Cl)cc(Cl)c1Cl` [HEXACHLOROPHENE], the IC50 result in test [1] was “Not Active”; in test [2] (read-out: IC50) it was 639 nM; in test [3], “Not Active”; in test [4] (hek293), “Not Active”; in test [5] it was “Not Active”; in test [6], “Not Active”. Besides, the concentration for half-maximal inhibition (IC50) in test [7] (read-out: IC50) turned out to be 196 nM. For the same molecule, the Ki entry in test [1] is “Not Active”; in test [2] (read-out: Ki), 361 nM; in test [5], “Not Active”.

Turning to `C#C[C@]1(OC(C)=O)CC[C@H]2[C@@H]3CCC4=C[C@@H](OC(C)=O)CC[C@@H]4[C@H]3CC[C@@]21C` [ETHYNODIOL DIACETATE], the IC50 result in test [1], in test [2] (cho-k1), in test [3], in test [4] (hek293), in test [5] and in test [6] was “Not Active” each time. In test [7], the IC50 result was “Not Active”. In addition, the inhibition constant (Ki) result in test [1] and in test [5] was “Not Active” throughout.

For the molecule `CCC(=O)O[C@]1(C(=O)CCl)[C@@H](C)C[C@H]2[C@@H]3CCC4=CC(=O)C=C[C@]4(C)[C@@]3(F)[C@@H](O)C[C@@]21C` [CLOBETASOL PROPIONATE], the IC50 result in test [1], in test [2] (cho-k1), in test [3], in test [4] (hek293), in test [5] and in test [6] was “Not Active” each time. Moreover, the half-inhibitory concentration (IC50) result in test [7] was “Not Active”. Besides, the Ki result in test [1] and in test [5] was “Not Active” each time.

Consider `Nc1ccc2c3c(cccc13)C(=O)NC2=O`, for which the IC50 entry in test [1], in test [2] (cho-k1), in test [3], in test [4] (hek293), in test [5] and in test [6] was “Not Active” each time. Moreover, the IC50 result in test [7] is “Not Active”. For the same molecule, the Ki result in test [1] and in test [5] was “Not Active” throughout.

Take `CCN(CC)CCOCCC1=CCC2CC1C2(C)C` (stereo not drawn) [MYRTECAINE]: the IC50 entry in test [1], in test [2] (cho-k1), in test [3], in test [4] (hek293), in test [5] and in test [6] was “Not Active” throughout. Moreover, the IC50 entry in test [7] is “Not Active”. Moreover, the inhibitory constant (Ki) result in test [1] and in test [5] was “Not Active” in each case.

For the molecule `CC(C)=CCC/C(C)=C/CO` [GERANIOL], the IC50 result in test [1], in test [2] (cho-k1), in test [3], in test [4] (hek293), in test [5] and in test [6] was “Not Active” each time. Moreover, in test [7], the IC50 entry was “Not Active”. In addition, the Ki entry in test [1] and in test [5] was “Not Active” throughout.

Regarding `CCCOc1ccc(C(=O)OCCN(CC)CC)cc1N` [PROPARACAINE], the half-maximal inhibitory concentration (IC50) entry in test [1], in test [2] (cho-k1), in test [3], in test [4] (hek293), in test [5] and in test [6] was “Not Active” throughout. Moreover, the half-maximal inhibitory concentration (IC50) result in test [7] is given as “Not Active”. Further, the Ki result in test [1] and in test [5] was “Not Active” throughout.

With `O=C(O)c1cccnc1Nc1cccc(C(F)(F)F)c1` [NIFLUMIC ACID], the half-maximal inhibitory concentration (IC50) result in test [1], in test [2] (cho-k1), in test [3], in test [4] (hek293), in test [5] and in test [6] was “Not Active” in each case. The IC50 result in test [7] is recorded as “Not Active”. Further, the inhibition constant (Ki) result in test [1] and in test [5] was “Not Active” each time.

In the case of `CN1[C@@H]2CC[C@H]1C[C@@H](OC(=O)C(CO)c1ccccc1)C2` (stereo partly drawn) [ATROPINE], the half-maximal inhibitory concentration (IC50) entry in test [1], in test [2] (cho-k1), in test [3], in test [4] (hek293), in test [5] and in test [6] was “Not Active” each time. The IC50 result in test [7] is given as “Not Active”. Besides, the inhibition constant (Ki) entry in test [1] and in test [5] was “Not Active” throughout.

In the case of `C#CC1(O)CC[C@H]2[C@@H]3CCC4=CC(=O)CC[C@@H]4[C@H]3CC[C@@]21CC` (stereo partly drawn) [NORGESTREL], the IC50 entry in test [1], in test [2] (cho-k1), in test [3], in test [4] (hek293), in test [5] and in test [6] was “Not Active” each time. Moreover, in test [7], the IC50 entry was “Not Active”. The Ki entry in test [1] and in test [5] was “Not Active” each time.

Regarding `CCCN(CCC)S(=O)(=O)c1ccc(C(=O)O)cc1` [PROBENECID], the IC50 result in test [1], in test [2] (cho-k1), in test [3], in test [4] (hek293), in test [5] and in test [6] was “Not Active” in each case. For the same molecule, in test [7], the half-maximal inhibitory concentration (IC50) result is listed as “Not Active”. Also, the Ki entry in test [1] and in test [5] was “Not Active” in each case.

Take `O=C1CN=C(c2ccccc2Cl)c2cc([N+](=O)[O-])ccc2N1` [CLONAZEPAM]: the 50% inhibitory concentration (IC50) result in test [1], in test [2] (cho-k1), in test [3], in test [4] (hek293), in test [5] and in test [6] was “Not Active” in each case. Besides, the half-maximal inhibitory concentration (IC50) entry in test [7] is “Not Active”. The Ki result in test [1] and in test [5] was “Not Active” throughout.

Consider `CC(C(=O)O)c1cccc(Oc2ccccc2)c1` (stereo not drawn) [FENOPROFEN], for which the IC50 result in test [1], in test [2] (cho-k1), in test [3], in test [4] (hek293), in test [5] and in test [6] was “Not Active” each time. In test [7], the IC50 result is on record as “Not Active”. The Ki entry in test [1] and in test [5] was “Not Active” each time.

`CC(=O)Oc1ccc(C(c2ccc(OC(C)=O)cc2)c2ccccn2)cc1` [BISACODYL]: the IC50 entry in test [1] is “Not Active”; in test [2] (cho-k1), “Not Active”; in test [3] it was “Not Active”; in test [4] (read-out: IC50), 2440 nM; in test [5] it was “Not Active”; in test [6], “Not Active”. Also, the 50% inhibitory concentration (IC50) entry in test [7] is given as “Not Active”. In addition, the inhibition constant (Ki) result in test [1] is “Not Active”; in test [4], 975 nM; in test [5] it was “Not Active”.

On to `C[C@@H]1C[C@H]2[C@@H]3CCC4=CC(=O)C=C[C@]4(C)[C@@]3(F)[C@@H](O)C[C@]2(C)[C@@]1(O)C(=O)CO` [DEXAMETHASONE], for which the half-inhibitory concentration (IC50) result in test [1], in test [2] (cho-k1), in test [3], in test [4] (hek293), in test [5] and in test [6] was “Not Active” in each case. In addition, in test [7], the half-maximal inhibitory concentration (IC50) entry is on record as “Not Active”. Besides, the Ki entry in test [1] and in test [5] was “Not Active” in each case.

With `Cc1cc2c(OCC(CNC(C)(C)C)OC(=O)c3ccccc3)cccc2[nH]1` (stereo not drawn) [BOPINDOLOL], the IC50 entry in test [1], in test [2] (cho-k1), in test [3], in test [4] (hek293), in test [5] and in test [6] was “Not Active” throughout. For the same molecule, the half-inhibitory concentration (IC50) result in test [7] was “Not Active”. The inhibitory constant (Ki) entry in test [1] and in test [5] was “Not Active” throughout.

Consider `Nc1ccn([C@@H]2O[C@H](CO)[C@@H](O)C2(F)F)c(=O)n1` [GEMCITABINE], for which the half-maximal inhibitory concentration (IC50) result in test [1], in test [2] (cho-k1), in test [3], in test [4] (hek293), in test [5] and in test [6] was “Not Active” in each case. Besides, the IC50 result in test [7] was “Not Active”. Moreover, the Ki result in test [1] and in test [5] was “Not Active” throughout.

Turning to `Nc1ccn([C@@H]2O[C@H](CO)[C@@H](O)[C@@H]2O)c(=O)n1` [CYTARABINE], the concentration for half-maximal inhibition (IC50) entry in test [1], in test [2] (cho-k1), in test [3], in test [4] (hek293), in test [5] and in test [6] was “Not Active” in each case. Besides, the IC50 entry in test [7] is listed as “Not Active”. Besides, the Ki result in test [1] and in test [5] was “Not Active” each time.
